Assay results published in patent publication US20110190165A1, “HIGH THROUGHPUT METHODS OF IDENTIFYING NEUTRAL LIPID SYNTHASES” (priority 2008, published 2011).

What was measured:
ACAT = conditions: ACAT1 vs ACAT2; cited from earlier work
[1] = tested in humans; cited from earlier work
[2] = tested on: quadruple knock-out strain cultures harboring vector with either DGAT1 or LacZ gene; assay: Growth of quadruple knock-out yeast expressing DGAT1 or LacZ on solid medium supplemented with fatty acids; assay type: cell-based, Saccharomyces cerevisiae; conditions: for selectivity of the media at lowered concentration: 0.5 mM fatty acid; for suitability for selection: 0.5 mM (500 μM) fatty acid; for growth of DGAT1 and LacZ cultures: 1 mM fatty acid
Method: (A) Plates of YNBG with and without supplement of 1 mM of oleic acid (C18:1) dissolved in ethanol. The plate without FA contained the same volume of ethanol only. (B) Plates of YNBG supplemented with 1 mM of palmitoleic (16:1^cisΔ9), linoleic (18:2^cisΔ9,12), α-linolenic (C18:3), docosahexaenoic (C22:6), ricinoleic (C18:1 OH), erucic (C22:1) and 0.5 mM of palmitic (C16:0) and stearic (C18:0) acids. The FAs were dissolved in ethanol at 0.5M or 0.25M and added to the YNBG prior to plating. (C) Plates supplemented with oleic, α-linolenic and docosahexaenoic acids at the final concentrations indicated. (D) Selection of yeast cells in medium with FA after transformation. H1246 cells were transformed with 1 μg of pYESBnDGAT1 (column 1), 1 μg of pYESLacZ (column 2) and 0.1 μg of pYESBnDGAT1 mixed with 0.9 μg of pYESLacZ (column 3). After transformation, yeast cells were recovered in liquid YNBD medium for 6 hours, inoculated in YNBG plates with or without supplement of 1 mM oleic acid and incubated at 30° C. for 6 days.

[3] = tested on: S. cerevisiae strain H1246 (quadruple knock-out); assay: Growth of knock-out yeast in liquid medium supplemented with oleic acid; conditions: growth measured for 72 hours
Method: Oleic acid, dissolved in ethanol at 0.5M, was supplemented to the cultures at the final concentrations indicated. The cultures were incubated at 30 °C, 250 rpm and the growth was monitored for 72 hours.
Three yeast strains (wild type, dga1 knock-out and quadruple knock-out) were transformed with yeast expression vector pYES2.1-TOPO (Invitrogen) containing a cDNA coding for DGAT1 from several oilseed plants (canola, flax or castor bean). The same vector containing the gene coding for the bacterial protein LacZ served as the negative control. Transformed yeast cells were cultivated in 50 mL of uracil drop-out medium supplemented with 2% glucose for 48 hours shaking at 30° C. and 250 rpm. The cells were washed twice with water and inoculated in liquid media supplemented with 2% galactose, 1% raffinose to induce the expression of the recombinant proteins, and different concentrations of free fatty acids (0 to 1000 μM of oleic acid). […] Cell growth was measured for a period of 72 hours.

## CCCCCCCCN1CCc2c(C)c(CC(=O)O)c(C)c(NC(=O)C(C)(C)C)c21 [pactimibe]
ACAT
  selectivity among ACAT isoforms: nonselective ACAT inhibitors
[1]
  efficacy against atherosclerosis: ineffective against atherosclerosis
  harm: probably harmful due to ACAT1 inhibition

## CCCCCCCCCCCCCCCCCC(=O)O [stearic, stearic acid]
[2]
  selectivity of the media at lowered concentration: did not substantially improve the selectivity

## CC(C)c1cc(C(C)C)c(CC(=O)NS(=O)(=O)Oc2c(C(C)C)cccc2C(C)C)c(C(C)C)c1 [avasimibe]
ACAT
  selectivity among ACAT isoforms: nonselective ACAT inhibitors
[1]
  efficacy against atherosclerosis: ineffective against atherosclerosis
  harm: probably harmful due to ACAT1 inhibition

## CCCCCCCC/C=C\CCCCCCCC(=O)O [oleic acid]
[2]; 1000 μM oleic acid, five days at 30° C., DGAT1 vs LacZ
  colony formation on solid medium: only the cells expressing the recombinant DGAT1 formed visible colonies
[3]
  concentration most effective in distinguishing strains with and without TAG synthase activity: 1000 µM
[3]; knock-out strains without recombinant DGAT1
  lowest concentration at which the inhibitory effect on growth was observed: 25 µM

## CCCCCCCCCCCCCCCC(=O)O [palmitic, palmitic acid]
[2]
  selectivity of the media at lowered concentration: did not substantially improve the selectivity

## CCCCCCCC/C=C\CCCCCCCCCCCC(=O)O [erucic, erucic acid]
[2]
  selectivity of the media at lowered concentration: did not substantially improve the selectivity

## CCCCC/C=C\C/C=C\CCCCCCCC(=O)O [linoleic, linoleic acid]
[2]
  suitability for selection: suitable for selection
  growth of DGAT1 and LacZ cultures: inhibited the growth of both cultures

## CC/C=C\C/C=C\C/C=C\CCCCCCCC(=O)O [α-linolenic, α-linolenic acid]
[2]
  suitability for selection: suitable for selection
  growth of DGAT1 and LacZ cultures: inhibited the growth of both cultures
